From PubChem BioAssay (NCI)
Where “and” joins values, the source holds several entries; their conditions need not be identical. Equal entries are not always repeated.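 48-hour exposure; five concentrations; linearly interpolated endpoints. Abbreviation: GI50, concentration required for 50% inhibition of growth. TGI denotes the concentration required for complete inhibition of growth.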

tested on: MDA-MB-468 breast; assay: growth of human tumour cells (NCI), 48 h

Compound	GI50	TGI
Cc1cc(C(=O)/C=C/c2ccc[nH]2)ccc1-n1ccc(C(F)(F)F)n1	3.76 µM	34.9 µM
CNC(=O)c1cc(Oc2cccc3nc(NC(=O)Nc4cc(C(F)(F)F)cc(C(F)(F)F)c4)ccc23)ccn1	3.4 µM	26.6 µM
COc1cc(Cl)cc(-c2nn(-c3cccc(NC(=O)Nc4cccc(C(F)(F)F)c4)c3)cc2-c2ccncc2)c1	1.05 µM	4.99 µM
CC[C@@]1(OC(=O)CN(C)C)C(=O)OCc2c1cc1n(c2=O)Cc2cc3c(N)cccc3nc2-1	0.0128 µM	0.035 µM
Cc1ccc(S(=O)(=O)OCC#CCOS(=O)(=O)c2ccc(C)cc2)cc1	1.85 µM	3.88 µM
O=C(O)c1cc2ccccc2c2c3c(ccc12)OCO3	153 µM	460 µM
Cc1nc(-c2cc3ccccc3oc2=O)ccc1C(=O)/C=C/c1ccccn1	> 100 µM	> 100 µM
COc1cccc(/C=C/c2nc3c(cnn3-c3ccccc3)c(=O)[nH]2)c1	0.67 µM	> 100 µM
CS(=O)(=O)Nc1cc(-c2ccc3ncnc(Nc4ccc(F)c(Cl)c4)c3c2)cnc1Cl	0.236 µM and 0.21 µM	1.29 µM and 1.02 µM
O=S(=O)(NCCNc1nccc(-c2c(-c3ccc(F)c(O)c3)nc3sccn23)n1)c1ccc(Cl)cc1	2.17 µM	> 50 µM
O=[N+]([O-])c1cccc(-c2nc(-c3ccc(Cl)cc3Cl)cn2-c2ccccc2)c1	1.57 µM	6.75 µM
Cc1ccc(Nc2cc(Cl)c([N+](=O)[O-])cc2[N+](=O)[O-])cc1	1.8 µM	3.58 µM
COc1ccc(C(C)c2cc(OC)c(OC)c(OC)c2)cc1 (stereo not drawn)	0.0945 µM	> 50 µM
Clc1ccc(C2CC(c3cccc(Nc4ccncc4)c3)=NN2c2ccc(Cl)cc2)cc1 (stereo not drawn)	1.4 µM	2.92 µM
O=C(CSCC(=O)N/N=C/c1ccccc1O)N/N=C\c1ccccc1O	1.26 µM	5.85 µM
COc1cccc(-c2nn(-c3ccccc3)cc2-c2ccnc(NCCCNC(=O)c3cccc(C(F)(F)F)c3)c2)c1	1.95 µM	7.37 µM
NCCCCCNc1noc(Cc2c[nH]c3cc(Br)ccc23)n1	2.13 µM	5.15 µM
Cc1cc(-c2nnc(/C=C/c3ccc4c(c3)OCO4)o2)n[nH]1	10.9 µM	32.7 µM
O=C1/C=C/[C@@H](O)[C@@H]2C[C@@H](O)C[C@H]2/C=C/CCC[C@H](CCc2ccc3ncccc3c2)O1	0.0656 µM	0.495 µM
CC(C)(C)c1cc(C(=O)Nc2ccc(C(=O)NCCN)cc2)cc(C(C)(C)C)c1	1.82 µM	3.6 µM
CCCCCCCCCCCCCCCCCCNCc1ccc(Cl)cc1	7.87 µM	24.8 µM
C[C@]12CC[C@@H]3c4ccc(O)cc4CC[C@H]3[C@@H]1CC[C@@H]2NS(=O)(=O)c1ccc(Br)cc1	3.57 µM	11.2 µM

Compound	GI50	TGI
O=C1Nc2cc(-c3cccc(O)c3)ccc2/C1=C/c1ccc[nH]1	0.245 µM	0.805 µM
C/C=C/C/C=C/[C@H](C)C[C@H](O)[C@@H]1C[C@@H]2O[C@H]2/C=C/[C@@H]2OC(C)(C)O[C@H]2/C=C/C[C@H](C)CC(=O)O1	17.3 µM	> 100 µM
O=C(NCCc1ccccc1)Nc1ccc2cc3ccc(NC(=O)NCCc4ccccc4)cc3nc2c1	0.81 µM	2.27 µM
NCCCOc1cc2ccccc2cc1C(=O)Nc1ccc(Cl)cc1OC(=O)c1cc2ccccc2cc1OCCCN	0.221 µM	0.573 µM
CN1CCN(c2ccc(OC(F)(F)F)c(Nc3ncc4c(n3)-c3c(c(C(N)=O)nn3CCO)CC4)c2)CC1	< 0.01 µM and 0.032 µM	11.5 µM
N#Cc1cnc2cc(OC[C@@H](O)CO)c(NC(=O)C3CCCC3)cc2c1Nc1ccc(OCc2cccc(F)c2)c(Cl)c1	0.611 µM	2.5 µM
CCCOc1cc2ccccc2cc1C(=O)Nc1nc(NC)c2c(ccc3nccc32)[nH]1	0.275 µM	1.01 µM
O=C(NCCN1CCCC1)c1ccc(-c2nc3ccc4[nH]ncc4c3c3c2CCCC3)cc1	0.356 µM	1.38 µM
CCOC(=O)C(Cc1c[nH]c2cc(N(CCO)CCO)ccc12)(NC(C)=O)C(=O)OCC	793 µM	> 1000 µM
Cc1ccc(C(=O)c2sc3nc4c(cc3c2N)CCCC4)c(C)c1	0.21 µM	8.42 µM
CCOC(=O)Nc1nc2ccccc2[nH]1	2.75 µM and 2.07 µM	> 89.9 µM and 9.09 µM
COc1ccc(/C(C)=N/NC(=O)CSc2nc3ccccc3c(=O)n2CCc2ccc(S(N)(=O)=O)cc2)cc1	2.3 µM	4.85 µM
Cc1ccc(C(=O)NCCCOc2ccc(N3C(N)=NC(N)=NC3(C)C)cc2Cl)cc1S(=O)(=O)F	> 100 µM	> 100 µM
COCCOCCOCc1n(Cc2ccc3ccccc3c2)c2ccccc2[n+]1Cc1ccc2ccccc2c1	0.11 µM	0.659 µM
Nc1ncnc2c1ncn2C1OC(COS(N)(=O)=O)C(O)C1O (stereo not drawn)	0.0021 µM and 0.0201 µM	0.00465 µM and 0.0422 µM
CO[C@@H]1CCN(c2nccc(Nc3cc4c(C(C)C)ccc(N5CC(CS(C)(=O)=O)[C@H]5C)c4cn3)n2)C[C@@H]1F (stereo partly drawn)	0.544 µM	4.11 µM
O=C1CC[C@H](N2Cc3c(OCc4ccc(CN5CCOCC5)cc4)cccc3C2=O)C(=O)N1	> 100 µM	> 100 µM
Nc1c(C(=O)Nc2ccccn2)sc2nc3c(cc12)C(O)CCC3 (stereo not drawn)	1.08 µM	> 50 µM
O=c1c2cc(-c3ccc(F)cc3F)ccc2n(Nc2ccccc2)c(=O)n1-c1cccc(C(F)(F)F)c1	1.99 µM	5.57 µM
N#Cc1ccc(-c2c(-c3ncn[nH]3)sc(N3CCOCC3)c2C#N)c(F)c1	0.242 µM	1.55 µM
CN(C)C(=O)OCc1nc2c(N3CCOCC3)nc(-c3ccccc3)nc2n1C	0.573 µM	1.82 µM
O=C(Nc1cccc(-n2cc(-c3ccncc3)c(-c3ccc(O)c(Cl)c3)n2)c1)c1ccc2c(c1)OCCO2	6.88 µM	> 100 µM
